Laboratory results: patent EP0336356A2, “Derivatives of tryptophan as CCK antagonists” (ABBOTT LABORATORIES, priority 1988, dated 1989)
Counter-ions that a name gives are not always drawn.

Legend:
[1] = target: T1, CCK receptors (Cavia porcellus, UniProt H0VZC5); experiment: [125I]BH-CCK8 radioligand binding, guinea pig cerebral cortical membranes; details: 30°C for 150 min, read-out: IC₅₀ (nM) [¹²⁵I]-BH-CCK₈ Cortex
T1 construct: cortex and pancreas were removed and rinsed with ice-cold saline; from tissue; host or cells: guinea pig cerebral cortex membranes
T1 sequence (H0VZC5 1-426): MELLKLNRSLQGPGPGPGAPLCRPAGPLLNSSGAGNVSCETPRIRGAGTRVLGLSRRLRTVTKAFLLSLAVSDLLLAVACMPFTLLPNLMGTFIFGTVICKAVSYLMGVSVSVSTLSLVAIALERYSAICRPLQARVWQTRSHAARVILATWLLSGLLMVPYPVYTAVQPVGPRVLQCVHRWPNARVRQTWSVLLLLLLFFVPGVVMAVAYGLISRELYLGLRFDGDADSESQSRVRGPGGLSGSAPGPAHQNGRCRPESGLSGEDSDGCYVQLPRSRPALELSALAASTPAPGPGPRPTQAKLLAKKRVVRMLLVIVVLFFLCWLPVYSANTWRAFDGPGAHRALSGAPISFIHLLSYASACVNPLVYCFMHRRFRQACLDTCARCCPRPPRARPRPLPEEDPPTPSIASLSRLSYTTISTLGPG

[2] = target: T2, CCK receptors (Cavia porcellus, UniProt Q63931); experiment: [125I]BH-CCK8 radioligand binding, guinea pig pancreatic membranes; details: 37°C for 30 min, read-out: IC₅₀ (nM) [¹²⁵I]-BH-CCK₈ Pancreas
T2 construct: cortex and pancreas were removed and rinsed with ice-cold saline; from tissue; host or cells: guinea pig pancreas membranes
T2 sequence (Q63931 1-430): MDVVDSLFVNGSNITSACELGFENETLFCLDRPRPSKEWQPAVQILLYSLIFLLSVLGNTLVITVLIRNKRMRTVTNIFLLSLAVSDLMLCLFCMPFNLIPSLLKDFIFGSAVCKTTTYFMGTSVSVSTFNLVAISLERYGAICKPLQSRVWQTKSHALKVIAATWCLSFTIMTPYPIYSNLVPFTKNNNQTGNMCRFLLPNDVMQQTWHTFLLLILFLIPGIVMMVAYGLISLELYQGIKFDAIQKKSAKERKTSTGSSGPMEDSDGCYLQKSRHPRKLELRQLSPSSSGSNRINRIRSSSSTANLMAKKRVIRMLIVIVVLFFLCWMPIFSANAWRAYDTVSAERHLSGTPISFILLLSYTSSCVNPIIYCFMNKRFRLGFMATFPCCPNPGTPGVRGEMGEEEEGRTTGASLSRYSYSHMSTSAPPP

[3] = target: T2, CCK receptors; experiment: Inhibition of CCK8-stimulated amylase release from guinea pig pancreatic acini; format: cell-based; details: reference concentration for CCK₈ 3x10⁻¹⁰M, 37°C, 30 min, read-out: IC₅₀ (nM) Inhibition of Amylase Release
Method: This assay was performed using the modified protocol of Lin et al., J. Pharmacol Exp. Ther. 236, 729-734, 1986. Guinea pig acini were prepared by the method of Bruzzone et al. (Biochem. J. 226, 621-624, 1985) as follows. Pancreas was dissected out and connective tissues and blood vessels were removed. […] The composition of the KRH buffer was: HEPES, 12.5 mM: NaCl, 118 mM; […] CaCl₂, 1 mM; KH₂PO₄, 1.2 mM; MgSO₄, 1.2 mM; NaHCO₃, 5 mM; glucose, 10 mM, pH 7.4. The buffer was supplemented with 1% MEM vitamins, 1% MEM amino acids and 0.001% aprotinin. The tube was shaken by hand until the suspension appeared homogeneous, usually 5 to 6 min. 5 mL of the KRH, without collagenase and with 0.1% BSA, were added and the tube was centrifuged at 50 x g for 35 sec. The supernatant was discarded and 6 mL of the KRH were added to the cell pellet. […] This wash procedure was repeated once. The cell pellet from the last centrifugation step was then resuspended in 15 mL of KRH containing 0.1% BSA. The contents were filtered through a dual nylon mesh, size 275 and 75 um. The filtrate, containing the acini, were centrifuged at 50 x g for 3 min. The acini were then resuspended in 5 mL of KRH-BSA buffer for 30 min at 37°C, under 100% O₂, with a change of fresh buffer at 15 min. After the 30 min incubation time, the acini were resuspended in 100 volumes of KRH-BSA buffer, containing 3 uM phosphoramidon and 100 µM bestatin. […] The final assay volume was 500 uL. Tubes were vortexed and placed in a 37°C waterbath, under 100% O₂, for 30 min. Afterward, tubes were centrifuged at 10,000 g for 1 min. Amylase activity in the supernatant and the cell pellet were separately determined after appropriate dilutions in 0.1% Triton X-100, 10 mM NaH₂PO₄, pH 7.4 by Abbott Amylase A-gent test using the Abbott Bichromatic Analyzer 200. […]

Row | SMILES | IC50 [1] [nM] | IC50 [2] [nM] | IC50 [3] [nM]
1 | CCCCCN(CCCCC)C(=O)C(Cc1c[nH]c2ccc(F)cc12)NC(=O)c1cnc2ccccc2c1 (racemic) [Example 63, N-(3′-Quinolylcarbonyl)-R,S-5-fluorotryptophan-di-n-pentylamide] | > 10000 | 62 | 
2 | CCCCCN(CCCCC)C(=O)C(Cc1c[nH]c2ccc(F)cc12)NC(=O)c1cc2ccccc2[nH]1 (racemic) [Example 64, N-(2′-Indolylcarbonyl)-R,S-5-fluorotryptophandi-n-pentylamide] | 10000 | 330 | 
3 | CCCCCN(CCCCC)C(=O)[C@@H](Cc1c[nH]c2ccccc12)NC(=O)c1cc2ccccc2[nH]1 [Example 3, N-(2′-Indolylcarbonyl)-R-Tryptophan-di-n-pentylamide] |  | 51 | 670
4 | O=C(N[C@H](Cc1c[nH]c2ccccc12)C(=O)NCc1ccccc1)c1cnc2ccccc2c1 [Example 7, N-(3′-Quinolylcarbonyl)-R-Tryptophan-benzylamide] |  |  | < 30000
5 | O=C(N[C@H](Cc1c[nH]c2ccccc12)C(=O)NCc1ccccc1)c1cc2ccccc2[nH]1 [Example 8, N-(2′-Indolylcarbonyl)-R-Tryptophan-benzylamide] | > 10000 | 420 | < 10000
6 | C[C@H](NC(=O)C(Cc1c[nH]c2ccccc12)NC(=O)c1cc2ccccc2[nH]1)c1ccccc1 (stereo partly drawn) [Example 19, N-(2′-Indolylcarbonyl)-Tryptophan-(1′,S-phenylethyl)amide] | > 10000 | 1000 | < 10000
7 | O=C(NC(Cc1c[nH]c2ccccc12)C(=O)Nc1cnc2ccccc2c1)c1cnc2ccccc2c1 (stereo not drawn) [Example 46, N-(3′-Quinolylcarbonyl)-Tryptophan-N-(3′-quinolyl)amide] |  |  | < 10000
8 | COC(=O)[C@@H](NC(=O)[C@@H](Cc1c[nH]c2ccccc12)NC(=O)c1cnc2ccccc2c1)c1ccc(O)cc1 [Example 50, Methyl N-(3′-Quinolylcarbonyl)-R-Tryptophyl-S-(p-hydroxyphenyl)glycinate] | > 10000 | 1200 | 
9 | CCCCCN(CCCCC)C(=O)C(Cc1c[nH]c2ccccc12)NC(=O)C=Cc1cccnc1 (stereo not drawn) [Example 54, N-(3′-(3˝-Pyridyl)prop-2-enoyl)-R-Tryptophan-di-n-pentylamide] |  |  | < 100000
10 | CCCCCN(CCCCC)C(=O)[C@@H](CC1C(=O)Nc2ccccc21)NC(=O)c1cnc2ccccc2c1 (stereo partly drawn) [Example 69, N-(3′-Quinolylcarbonyl)-R-(β-oxyindolyl)Ala-di-n-pentylamide] | 4100 | 10 | 
11 | CCCCCN(CCCCC)C(=O)[C@@H](Cc1c[nH]c2ccc(O)cc12)NC(=O)c1cnc2ccccc2c1 [Example 84, N^α-(3′-Quinolylcarbonyl)-R-5-hydroxytryptophan-di-n-pentylamide] | < 10000 | 2.6 | 
12 | CCCCCN(CCCCC)C(=O)[C@@H](Cc1c[nH]c2ccccc12)NC(=O)c1ccc2cccc(O)c2n1 [Example 90, N′(8′-Hydroxy-2′-quinolylcarbonyl)-R-Tryptophan-di-n-pentylamide] | > 10000 | 230 | 
13 | CCCCCN(CCCCC)C(=O)[C@@H](Cc1c[nH]c2ccccc12)NC(=O)c1cc(O)c2cccc(O)c2n1 [Example 91, N-(4′,8′-Dihydroxy-2′-quinolylcarbonyl)-R-Tryptophan-di-n-pentylamide] |  | 5 | 
14 | CCCCCN(CCCCC)C(=O)[C@@H](Cc1c[nH]c2ccccc12)NC(=O)c1ccc2cc(O)ccc2c1 [Example 93, N-(6′-Hydroxy-2′-naphthoyl)-R-Tryptophan-di-n-pentylamide] |  |  | 100000
15 | CCCCCN(CCCCC)C(=O)[C@@H](Cc1c[nH]c2ccccc12)NC(=O)c1cc2cc(C)ccc2[nH]1 [Example 105, N-(5′-Methyl-2′-indolylcarbonyl)-R-Tryptophan-di-n-pentylamide] | > 10000 | 620 | 
16 | CCCCCN(CCCCC)C(=O)[C@@H](Cc1c[nH]c2ccccc12)NC(=O)c1cc2cc(F)ccc2[nH]1 [Example 106, N-(5′-Fluoro-2′-indolylcarbonyl)-R-Tryptophan-di-n-pentylamide] |  | 82 | 
17 | CCCCCN(CCCCC)C(=O)[C@@H](Cc1c[nH]c2ccccc12)NC(=O)c1cnc2ccccc2c1 [Example 117, N-(3′-Quinolylcarbonyl)-R-Tryptophan-di-n-pentylamide mesylate salt] | 13000 | 17 | 

The remaining lines, values ahead:

Row | IC50 [1] [nM] | IC50 [2] [nM] | IC50 [3] [nM] | SMILES
18 | > 10000 |  |  | CCCCCN(CCCCC)C(=O)C(Cc1c[nH]c2ccc(OCc3ccccc3)cc12)NC(=O)c1cnc2ccccc2c1 (racemic) [Example 53, N-(3′-Quinolylcarbonyl)-R,S-5-benzyloxytryptophan-di-n-pentylamide]
19 |  | 330 |  | CCCCCN(CCCCC)C(=O)[C@@H](Cc1c[nH]c2ccccc12)NC(=O)c1ccc(Cl)cc1 [Example 4, N-(p-Chlorobenzoyl)-R-Tryptophan-di-n-pentylamide]
20 | 10000 | 680 | < 30000 | C[C@@H](NC(=O)C(Cc1c[nH]c2ccccc12)NC(=O)c1cc2ccccc2[nH]1)c1ccccc1 (stereo partly drawn) [Example 18, N-(2′-Indolylcarbonyl)-Tryptophan-(1′,R-phenylethyl)amide]
21 | 10000 | 150 | < 10000 | COC(=O)[C@@H](NC(=O)[C@@H](Cc1c[nH]c2ccccc12)NC(=O)c1cc2ccccc2[nH]1)c1ccccc1 [Example 25, Methyl N-(2,indolylcarbonyl)-R-Tryptophyl-S-Phenylglycinate]
22 | 10000 | 280 | < 10000 | CCOC(=O)CN(Cc1ccccc1)C(=O)[C@@H](Cc1c[nH]c2ccccc12)NC(=O)c1cc2ccccc2[nH]1 [Example 28, Ethyl N-(2′-Indolylcarbonyl)-R-Tryptophyl-(N-benzyl)Glycinate]
23 | > 10000 | 1500 |  | CCCCCN(CCCCC)C(=O)[C@@H](Cc1c(Sc2ccccc2[N+](=O)[O-])[nH]c2ccccc12)NC(=O)c1cnc2ccccc2c1 [Example 45, N-(3′-Quinolylcarbonyl)-2-(2′-nitrophenylsulfenyl)-R-Tryptophan-di-n-pentylamide]
24 | > 10000 | 750 |  | CCCCCN(CCCCC)C(=O)[C@@H](Cc1c[nH]c2ccccc12)NC(=O)C1=C(C)c2ccccc2C1 [Example 57, N-(2′-(3′-Methylindenyl)carbonyl)-R-Tryptophan-di-n-pentylamide]
25 | > 10000 | 370 |  | CCCCCN(CCCCC)C(=O)[C@H]1Cc2c([nH]c3ccccc23)N1C(=O)c1cnc2ccccc2c1 [Example 78, 2,3-Dihydro-1-(3′-quinolylcarbonyl)-pyrrolo[2,3-b]indole-(2R)-dipentylcarboxamide]
26 |  | 630 | < 100000 | CCCCCN(CCCCC)C(=O)[C@@H](Cc1c[nH]c2ccccc12)NC(=O)c1cc2ccccc2cn1 [Example 96, N-(3′-Isoquinolylcarbonyl)-R-Tryptophan-di-n-pentylamide]
27 |  | 180 | < 100000 | CCCCCN(CCCCC)C(=O)[C@@H](Cc1c[nH]c2ccccc12)NC(=O)c1ccc2ncccc2c1 [Example 97, N-(6′-Quinolylcarbonyl)-R-Tryptophan-di-n-pentylamide]
